# Measured values published in patent US7332476B2, “Pyridyl substituted ketolide antibiotics” (Novartis AG, priority 2003, dated 2008).
# Assays:
# Assay in all cases: MIC, broth microdilution (NCCLS)
# [1] = tested on: Streptococcus pyogenes Stpy_8668; format: cell-based; details: Table 5, Strain ID D (Table 4): S. pyogenes Stpy_8668; unit assumed
# In short: (§1)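 Broth microdilution per NCCLS in cation-adjusted Mueller-Hinton broth, with 2-5% lysed horse blood added for S. pneumoniae. Inoculum 3×10^5–7×10^5 CFU/ml, 2-fold drug dilutions, 18-24 h at 35° C; S. pneumoniae under 5-10% CO2, others ambient air. MIC = lowest concentration preventing visible growth.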
# [2] = tested on: S. pneumoniae Stpn_Erm 6849; format: cell-based, Streptococcus pneumoniae; details: Table 5, Strain ID H (Table 4): S. pneumoniae Stpn_Erm 6849; unit assumed
# In short: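 Lowest drug concentration giving no visible growth after 18-24 hours at 35° C. under 5-10% CO2 was taken as MIC. Twofold serial dilutions in CAMHB plus 2-5% lysed horse blood, final inoculum 3×10^5–7×10^5 CFU/ml, per NCCLS microdilution.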
# [3] = tested on: Streptococcus pneumoniae Stpn_280-962; format: cell-based; details: Table 5, Strain ID G (Table 4): S. pneumoniae Stpn_280-962 Pen S; unit assumed
# In short: as §1
# [4] = tested on: Streptococcus pneumoniae Stpn_Mef 5654; format: cell-based; details: Table 5, Strain ID J (Table 4): S. pneumoniae Stpn_Mef 5654; in µg/mL (unit assumed)
# In short: as §1
# E. coli Esco_25922 = format: cell-based; details: Table 5, Strain ID M (Table 4): E. coli Esco_25922; unit assumed
# Method: Strains. The bacterial isolates listed in Table 4 were cultivated from −70° C. frozen stocks by two consecutive overnight passages (P1, P2) at 35° C. on 5% blood agar (Remel, Lenexa, Kans.). Chocolate agar (Remel) is used for Haemophilus influenzae. H. influenzae and Streptococcus pneumoniae are incubated in 5-10% CO2
# Drug Stock Preparation. To determine the amount of solvent to be used to give the desired final concentration, the formula “weight obtained in mg/final concentration in mg/ml” will be used. It will give the amount of solvent in ml needed to be added to give the desired concentration. For example, if 2.5 mg/ml is the desired concentration and the weight of compound is 13.7 mg, then the amount of solvent to be added is […]. Methanol is used as the solvent to dissolve the test compounds. Further dilution of stock is done in sterile, deionized water. Drug stocks are kept frozen at −70° C., protected from light.
# Susceptibility Testing. MICs are determined by the broth microdilution method in accordance with the NCCLS guidelines. In brief, organism suspensions are adjusted to a 0.5 McFarland standard to yield a final inoculum between 3×10^5 and 7×10^5 CFU/ml. Drug dilutions and inocula are made in sterile, cation adjusted Mueller-Hinton Broth (CAMHB) (Remel) for all but S. pneumoniae [CAMHB with 2-5% lysed horse blood (Remel)] and H. influenzae [Haemophilus Test Medium (Remel)]. An inoculum volume of 100 μl is added to wells containing 100 μl of broth with 2-fold serial dilutions of drug. All inoculated microdilution trays are incubated in ambient air at 35° C. for 18-24 hours, except for S. pneumoniae, and H. influenzae (both at 5-10% CO2).
# Following appropriate incubation, the MIC is determined and the MIC is defined as the lowest concentration of the drug that prevented visible growth.
# [5] = tested on: Streptococcus pneumoniae Stpn_297-749; format: cell-based; details: Table 5, Strain ID F (Table 4): S. pneumoniae Stpn_297-749 Pen R; unit assumed
# In short: as §1
# [6] = tested on: Staphylococcus epidermidis Step_14990; format: cell-based; details: Table 5, Strain ID A (Table 4): S. epidermidis Step_14990; in µg/mL (unit assumed)
# In short: as §1
# [7] = tested on: Haemophilus influenzae Hain_49247; format: cell-based; details: Table 5, Strain ID L (Table 4): H. influenzae Hain_49247; unit assumed
# [8] = tested on: Streptococcus pneumoniae Stpn_Mef S 3427; format: cell-based; details: Table 5, Strain ID K (Table 4): S. pneumoniae Stpn_Mef S 3427; in µg/mL (unit assumed)
# In short: as §1
# [9] = tested on: Staphylococcus epidermidis Step_f50654; format: cell-based; details: Table 5, Strain ID B (Table 4): S. epidermidis Step_f50654 Pen S; in µg/mL (unit assumed)
# In short: as §1
# [10] = tested on: Enterococcus faecalis Enfa_29212; format: cell-based; details: Table 5, Strain ID C (Table 4): E. faecalis Enfa_29212; in µg/mL (unit assumed)
# In short: as §1
# [11] = tested on: Streptococcus pneumoniae Stpn_Erm S 4297; format: cell-based; details: Table 5, Strain ID I (Table 4): S. pneumoniae Stpn_Erm S 4297; unit assumed
# In short: as §1
# [12] = tested on: Streptococcus pneumoniae Stpn_49619; format: cell-based; details: Table 5, Strain ID E (Table 4): S. pneumoniae Stpn_49619; unit assumed
# In short: as §1
SMILES,MIC [1] [mg/L],MIC [2] [mg/L],MIC [3] [mg/L],MIC [4],MIC (E. coli Esco_25922) [mg/L],MIC [5] [mg/L],MIC [6],MIC [7] [mg/L],MIC [8],MIC [9],MIC [10],MIC [11] [mg/L],MIC [12] [mg/L]
CC[C@H]1OC(=O)[C@H](C)C(=O)[C@H](C)[C@@H](OC2O[C@H](C)C[C@H](N(C)C)[C@H]2O)[C@@](C)(OC)C[C@@H](C)C2=NCCN3C(=O)O[C@H]1[C@H]3[C@H]2C (some centres unmarked) [Compound 6222],0.2,> 50,0.2,0.78,50,0.4,1.56,25,0.4,1.56,0.4,> 50,0.2
CC[C@H]1OC(=O)[C@H](C)C(=O)[C@H](C)[C@@H](OC2O[C@H](C)C[C@H](N(C)C)[C@H]2O)[C@@](C)(OC)C[C@@H](C)C2=N[C@@H](C)CN3C(=O)O[C@H]1[C@H]3[C@H]2C (some centres unmarked) [Compound 6223],0.2,> 50,0.2,0.78,50,0.2,1.56,> 50,0.4,3.13,0.78,> 50,0.2
